Experimental findings from patent publication US20230346831A1, “METHODS FOR TREATING […] USING LOW DOSE CARBON MONOXIDE” (priority 2020, published 2023) are described below.

One series has as its system SP1. The series is described as follows: quantitative real-time reverse transcription PCR. In kind it is cell-based, human. Conditions: MCF7 and MDA-MB-231 cells; 250 ppm CO. The protocol: (§1) mRNA was isolated from cells (MCF7/TGL and MDA-MB-231/TGL) grown on 6-cm dishes using RNeasy mini kit (Qiagen, Hilden, Germany) containing gDNA Eliminator spin columns. cDNA was generated using the SuperScript III First-strand synthesis system with random hexamers (Invitrogen, Carlsbad, CA), and power SYBR green (Invitrogen, Carlsbad, CA)-based quantitative real-time PCR was performed using primer specific for HRG1 (human, forward: 5′- […] -3′ (SEQ ID NO: 1), reverse: 5′- […] -3′ (SEQ ID NO: 2)) or HCP1 (human forward: 5′- […] -3′ (SEQ ID NO: 3), reverse: 5′-[…] -3′ (SEQ ID NO: 4)), CYP1B1 (human, forward: 5′TGAGTGCCGTGTGTTTCGG -3′ (SEQ ID NO: 5), reverse: 5′-[…] -3′ (SEQ ID NO: 6)), SP1 (human, forward: 5′-GTGGCCGCTACCTTCACTG -3′ (SEQ ID NO: 7), reverse: 5′-GCCCCACTCCTACTTGGTC -3′ (SEQ ID NO: 8)) with the comparative CT method (ΔΔCT; ABI).
(§2) Heme is known to stimulate synthesis of many hemoproteins. Accordingly, hemoproteins whose expression was differentially regulated by low-dose CO in MCF7 and MDA-MB-231 cell lines were screened. CYP1B1, a heme-regulated protein, was identified as a top candidate in the list because of its following properties. First, CYP1B1 has been reported to induce the expression of SP1 transcription factor, and Sp1 interacts with Myc for synergistic transcriptional regulation for Myc target genes. […]

In the next series the test system is CYP1B1. Description: quantitative real-time reverse transcription PCR. In kind it is cell-based, human. Conditions: MCF7 and MDA-MB-231 cells; 250 ppm CO. The protocol: as §1, §2
Another series has as its system 8988T/TGL cells. Description: orthotopic (intrasplenic) model of liver metastasis of PDAC. The format is in vivo. Conditions: 8988T/TGL cells intrasplenic, NSG mice, 5 days a week. How it is done: NSG mice were generated by the Jackson Laboratory. All mice were housed in accordance with the institutional guidelines. […] Zhang, & Y. N. Du, Methods Mol Biol 1882, 309-320 (2019)). The spleen was removed after the injection. Starting one day after injection, mice were randomized into two groups. One group was kept in a regular mouse holding room (control), and the other group was put into a chamber delivering 250 ppm CO 3 hours daily. Mice were subjected to bioluminescent imaging using the In Vivo Imaging System Spectrum (PerkinElmer, Waltham, MA) at 0, 1, 3 days and then weekly after tumor cells were injected until the final time points, as described previously by Y. C. Du, D. S. Klimstra, & H. Varmus, PLoS One 4, e6932 (2009)). Luciferase signals were transformed to nature log scale before analysis. GEE method was used to test the overall difference of tumor growth over time. All analyses were performed in statistical software SAS Version 9.4 (SAS Institute, Cary, NC).
Mouse tissues were removed and fixed in 10% buffered formalin overnight at room temperature. […] Tumor number and tumor size were quantified by scanning the whole tissue slide of each mouse under microscope. The size of tumor area of each tumor was measured by the cellSens imaging software (Olympus, Tokyo, Japan). […]

Regarding `[C-]#[O+]` [CO, Carbon monoxide], in the series on SP1, the “SP1 mRNA levels” value was “significantly reduced”. Further, the “CYP1B1 mRNA levels” value in the series with CYP1B1 is on record as “significantly reduced”. The “metastatic tumor numbers in liver sections (histological analysis)” value with 8988T/TGL cells (250 ppm CO 3 hours daily, 19 days after the injection) is given as “significantly less”. The “bioluminescence over the time course, control vs CO group” value in the series with 8988T/TGL cells (250 ppm CO gas 3 hours daily, P < 0.0001, GEE method) was “Significant difference”.
